Assay results: patent publication EP0398925B1, “GROWTH INHIBITING AGENT AND THE USE THEREOF” (CHILDREN'S HOSPITAL CORPORATION, priority 1988, dated 1989)

How the values were obtained:
[1] = system: chorioallantoic membrane of the chick embryo; test: CAM assay: avascular zone around a methylcellulose disc holding the test substance; format: in vivo; details: for angiogenesis-inhibition: 100 µg of cyclodextrin with 50 µg of hydrocortisone, no successes at (+) or (++) level; for angiogenesis suppression activity: unmodified CDs with hydrocortisone (Examples 18-20)
From the text: A more economic bioassay makes use of the chorioallantoic membrane of the chick embryo. This test will for convenience be referred to hereinafter as the "CAM assay". For a more detailed description of the CAM assay, see Folkman et al., Science 221:719 (1983). A typical CAM assay, such as used for the evaluations in the examples in Section 7, infra, employs 16 eggs per experiment. A 2 mm diameter disk of methylcellulose containing the test substance is applied to the chorioallantoic membrane of a 6-day chick embryo, cultured in a Petri dish, in a humidified incubator with 3% carbon dioxide. Two days later (8-day embryo), the membrane is examined under a stereomicroscope at six- to ten-fold magnification. Inhibition of angiogenesis by the test substance is evidenced by the development of an avascular zone around the methylcellulose disc. An avascular zone of 4 mm is graded as (++) and an avascular zone of 2 mm is graded as (+). […] A rating of zero % reflects absence of inhibition or the test substance under the test conditions.
The sustained release methylcellulose discs are prepared by dispersing appropriate amount(s) of the test substance of substances in an 0.45% aqueous solution of methylcellulose, and depositing 10 microliter aliquots of the resulting solution in a Teflon mold, followed by air drying for about one hour in a laminar flow hood.

[2] = Solubility in liquid water at zero °C; format: physicochemical
From the text: The CD derivatives useful in the present invention are highly hydrophilic and therefore very water soluble. Without wishing to be bound by theory, we believe that a highly hydrophilic character is important to allow interaction with cellular surfaces. We also believe a very high water solubility of the derivative is an important factor which cooperatively interacts with the inherent complexing ability of the CD structure to provide effective inhibition of angiogenesis with an exogenous steroid, as provided by this invention. We believe that the hydrophlilic activity is roughly indicated by the affinity to water, as measured by water solubility. It is important to measure the same at 0°C since at higher temperatures the most suitable derivative have solubilities so high that meaningful measurements are difficult. […] All solubility measurements referred to herein relate to the solubility of the substantially anhydrous derivatives, and when these are salts, to the anhydrous sodium form. […] In order to make comparisons that included the very water-soluble CD sulfates, the solubilities of which were so high at room temperature that measurement was not practical, all solubility measurements were made in liquid water at zero °C. One can picture this to be a measure of the competition of the hydrophile bonding with water in relation to the orderly bonding of water to itself.

rabbit cornea [3] = test: Rabbit cornea test, endotoxin Elvax implant, test substance given in a second Elvax implant; format: in vivo; details: day 13, Elvax pellet with β-CD-TDS 15 µg/mm³ and/or cortexolone 30 µg/mm³, over 100% = stimulation; for Vessel Density, Inhibition (% of Untreated Control Group): length-density index
Experimental: In another series of experiments, the antiangiogenic activity of a water-soluble cyclodextrin salt derivative in combination with cortexolone was evaluated using the rabbit cornea test as described by Gimbrone et al., J. Nat'l Cancer Inst. 52:413 (1974). In these experiments, E. coli endotoxin (17 µg/mm³) incorporated into sustained release polymer pellets of ethylene vinylacetate copolymer [Elvax, Sigma Chemical, St. Louis, MO (hereinafter "Elvax")] was implanted between the vascular limbal edge of the rabbit corneas. The test substance(s) were administered by means of a second Elvax implant incorporating the particular test substance.
Elvax containing endotoxin was implanted into the corneas of 12 rabbits. The animals were then divided into 4 groups and 4 eyes were treated for each group as follows: Group 1, received no further treatment and served as the control group; Group 2, β-CD-TDS at 15 µg/mm³ Elvax pellet; Group 3, cortexolone at 30 µg/mm³ Elvax pellet; and Group 4, a combination of β-CD-TDS and cortexolone incorporated into an Elvax pellat at a final concentration of 15 µg/mm³ Elvax of β-CD-TDS and 30 µg/mm³ Elvax of cortexolone. The vessel length of new capillary growth was measured every 2 days with a slit-lamp stereoscope at 10X using an ocular grid calibrated to ± 0.1 mm.
Thus, the vessel density was also evaluated and graded using the following scale: O=no vessels/cornea; 1=1-4 vessels/cornea; 2=5-20 vessels/cornea; 3=20-50 vessels/cornea; and 4=more than 50 vessels/cornea. This grade was then multiplied by mean maximal length of the vessels to obtain a semi-quantitative estimate of vessel density (length-density index) for each cornea.

calf aortic SMC = test: Suppression of smooth muscle cell growth in tissue culture; format: cell-based; details: each used alone, 0.03 µg/ml up to 400 µg/ml
Experimental: (§1) The bioassay of this activity was made using tissue cultures of rat aortic SMC and calf aortic SMC, with dosages ranging from 0.03 µg/ml up to 400 µg/ml.

rat aortic SMC = test: as above; format: cell-based; details: each used alone, 0.03 µg/ml up to 400 µg/ml
Experimental: as §1

rabbit cornea [4] = test: Rabbit corneal test, endotoxin implant, test substance applied topically as eye drops; format: in vivo; details: eye drops in saline; 9th day; hydrocortisone 0.5 mg/ml, β-CD-TDS 1.0 mg/ml (combination uses hydrocortisone-21-phosphate)
From the text: The rabbit corneal test described by Perlin, Fed. Proc. 36:101 (1977) modified as described below, was employed to examine the effectiveness of a combination of β-CD-TDS and hydrocortisone In this corneal test, a sustained release polymer impregnated with bacterial endotoxin was first implanted in rabbit corneas. Endotoxin slowly released from this implant induces angiogenesis in the cornea in a manner analogous to the neovascularization observed in patients rejecting a corneal transplant. Rather than employing a second implant containing the test substance to deliver such test substance as generally used, in the present experiments the test substance was applied topically to the cornea, i.e., in the form of eye drops. Animals having received an endotoxin-containing implant were divided into four groups and were treated by topical application (eye drops) as follows: Group 1, was not treated further and served as the control group; Group 2, received hydrocortisone alone (0.5 mg/ml); Group 3, hydrocortisone-21-phosphate and β-CD-TDS, (0.5 mg/ml and 1.0 mg/ml, respectively); and Group 4, β-CD-TDS (1.0 mg/ml). The diluent for the eye drops was saline in all cases. FIG. 3 (A-D) illustrates the results typically obtained on the 9th day post-implantation and treatment.

[5] = compound 25 µg/10 µl with 50 µg to 60 µg of hydrocortisone in 10 µl of 0.45% methylcellulose
[6] = compound 100 µg/10 µl with 50 µg to 60 µg of hydrocortisone in 10 µl of 0.45% methylcellulose
[7] = 25 µg/10 µl of β-CD-TDS with Cortexolone 50 µl/10 µl

For α-cyclodextrin [α-CD], the angiogenesis-inhibition [1] was “total absence of angiogenesis-inhibition”, the “% Avascular zones” value [1, 5] was 0% and the “% Avascular zones” value [1, 6] was 5± 0.3%. The angiogenesis suppression activity [1] was “no indication of angiogenesis suppression activity” and the “Solubility 0°C, g/100 ml H₂O” value [2] was 6 g/100 ml H₂O.

With `C[C@]12CCC(=O)C=C1CC[C@@H]1[C@@H]2CC[C@@]2(C)[C@H]1CC[C@]2(O)C(=O)CO` [Cortexolone, 17 alpha, 21-dihydroxypregn-4-ene-3,20-dione] the “% Avascular zones” value ([1]; Cortexolone alone, 50 µl/10 µl) was “zero”, the “Vessel Length, Inhibition (% of Untreated Control Group)” value (rabbit cornea [3]) was 49% and the “Vessel Length, Inhibition (% of Untreated Control Group)” value (rabbit cornea [3]; listed as cortexolone) was “about 49%”. The “Vessel Density, Inhibition (% of Untreated Control Group)” value (rabbit cornea [3]) was 61% and the “Vessel Density, Inhibition (% of Untreated Control Group)” value (rabbit cornea [3]; listed as cortexolone) was “about 61%”.

For `OC[C@H]1O[C@@H]2O[C@H]3[C@H](O)[C@@H](O)[C@@H](O[C@H]4[C@H](O)[C@@H](O)[C@@H](O[C@H]5[C@H](O)[C@@H](O)[C@@H](O[C@H]6[C@H](O)[C@@H](O)[C@@H](O[C@H]7[C@H](O)[C@@H](O)[C@@H](O[C@H]8[C@H](O)[C@@H](O)[C@@H](O[C@H]1[C@H](O)[C@H]2O)O[C@@H]8CO)O[C@@H]7CO)O[C@@H]6CO)O[C@@H]5CO)O[C@@H]4CO)O[C@@H]3CO` [β-CD, β-cyclodextrin], the angiogenesis-inhibition [1] was “total absence of angiogenesis-inhibition”, the “% Avascular zones” value [1, 5] was 0.04% and the “% Avascular zones” value [1, 6] was 0%. For the same compound, the angiogenesis suppression activity [1] was “no indication of angiogenesis suppression activity”.

With `O=C(O)[C@@H]1CCN1` [(a) L-2-Azetidine, L-2-azetidinecarboxylic acid] the “% Avascular zones” value ([1]; L-2-Azetidine 400 ug/10 µl, (a) 0 µg CD-TDS, (b) 25 µg CD-TDS) was 28%.

In the case of γ-cyclodextrin [γ-CD], the angiogenesis-inhibition [1] is reported as “total absence of angiogenesis-inhibition”, the “% Avascular zones” value [1, 6] is reported as 0% and the angiogenesis suppression activity [1] is reported as “no indication of angiogenesis suppression activity”.

For “β-cyclodextrin tetradeca sulfate [β-CD-TDS]”, the “% Avascular zones” value [1, 7] was 85%, the “% avascular zones (++) or greater” value [1, 7] was 31% and the “% Avascular zones” value [1, 5] was 58± 7.0%. For the same compound, the “% Avascular zones” value ([1]; compound 50 µg/10 µl with 50 µg to 60 µg of hydrocortisone in 10 µl of 0.45% methylcellulose) was 75± 5.8%, the “% Avascular zones” value [1, 6] was 55± 7.5% and the “effectiveness relative to whole heparin in suppressing smooth muscle cell (SMC) growth” value (calf aortic SMC) was “about three”. The “effectiveness relative to whole heparin in suppressing smooth muscle cell (SMC) growth” value (rat aortic SMC) was “about three”, the “effect on endotoxin-induced angiogenesis in the cornea” value (rabbit cornea [4]) was “slight stimulation of angiogenesis” and the “Solubility 0°C, g/100 ml H₂O” value [2] was 42 g/100 ml H₂O.

In the case of `C[C@]12CCC(=O)C=C1CC[C@@H]1[C@@H]2[C@@H](O)C[C@@]2(C)[C@H]1CC[C@]2(O)C(=O)CO` [hydrocortisone, 11 beta, 17 alpha, 21-trihydroxypregn-4-ene-3,20-dione], the “effect on endotoxin-induced angiogenesis in the cornea” value (rabbit cornea [4]) is reported as “only a slight inhibition of angiogenesis”.
